# The source made the active and inactive calls. The rule behind the calls is not given here.
# How the values were obtained:
# SGC-7901 [1] = experiment: Induction of apoptosis in human SGC-7901 cells assessed as activation of caspase-3 at 0 to 30 nmol/L incubated for 48 hrs by Western blot analysis; type: functional, cell-based; details: dose 0-30 nmol/L
# [2] = target: T1, Tubulin beta (Homo sapiens) (UniProt P68371+Q9H4B7+Q13509+P04350+Q3ZCM7+P07437+Q13885+Q9BVA1+Q9BUF5+A6NNZ2); experiment: Binding affinity to colchicine binding site of beta-tubulin in human MGC-803 cells assessed as inhibition of beta-tubulin alkylation by measuring disappearance of beta-tubulin-EBI adduct band pretreated for 2 hrs followed by EBI addition and measured after 2 hrs by Western blot analysis; type: cell-based; details: dose 0-10 µM, time 4.0 hrs
# MGC-803 [3] = experiment: Induction of apoptosis in human MGC-803 cells assessed as increase in cleaved PARP level at 0 to 24 nmol/L incubated for 48 hrs by Western blot analysis; type: functional, cell-based; details: dose 0-24 nmol/L
# MGC-803 [4] = experiment: Induction of morphological changes in human MGC-803 cells assessed as increase in proportion of dead cells at 0 to 24 nmol/L incubated for 48 hrs by calcein-AM/PI staining based analysis; type: functional, cell-based; details: dose 0-24 nmol/L
# MGC-803 [5] = experiment: Induction of cell cycle arrest in human MGC-803 cells assessed as reduction in cyclin B1 protein expression incubated for 48 hrs by Western blot analysis; type: functional, cell-based; details: dose 0-24 nmol/L
# MGC-803 [6] = experiment: Induction of cell cycle arrest in human MGC-803 cells assessed as accumulation of cells at G2/M phase incubated for 48 hrs; type: functional, cell-based; details: dose 0-24 nmol/L
# NCI-H520 = experiment: Antiproliferative activity against human NCI-H520 cells assessed as inhibition of cell growth incubated for 48 hrs by MTT assay; type: functional, cell-based; details: NCI-H520, 48 h
# MGC-803 [7] = experiment: Antitumor activity against human MGC-803 cells xenografted in BALB/c nude mouse assessed as reduction in tumor weight at 25 mg/kg/day, ip administered every day for 21 days; type: functional, organism-based; details: time 21.0 day
# SGC-7901 [8] = experiment: Induction of morphological changes in human SGC-7901 cells assessed as appearance of oblate and bright cells at 0 to 30 nmol/L incubated for 48 hrs by bright field microscopic analysis; type: functional, cell-based; details: dose 0-30 nmol/L
# [9] = target: T2, Lysine-specific histone demethylase 1A (Homo sapiens, UniProt O60341); experiment: Inhibition of LSD1 in human MGC-803 cells assessed as increase in H3K4me1 expression level at 0 to 24 nmol/L incubated for 48 hrs by Western blot analysis; type: cell-based; details: dose 0-24 nmol/L
# [10] = target: T2, Lysine-specific histone demethylase 1A; experiment: Inhibition of LSD1 in human MGC-803 cells assessed as increase in H3K4me2 expression level at 0 to 24 nmol/L incubated for 48 hrs by Western blot analysis; type: cell-based; details: dose 0-24 nmol/L
# SGC-7901 [11] = experiment: Induction of morphological changes in human SGC-7901 cells assessed as appearance of bright and shrunken nucleus at 0 to 30 nmol/L incubated for 48 hrs by DAPI staining based analysis; type: functional, cell-based; details: dose 0-30 nmol/L
# MGC-803 [12] = experiment: Induction of cell cycle arrest in human MGC-803 cells assessed as reduction in CDC2 phosphorylation at Thr161 residue at 0 to 24 nmol/L incubated for 48 hrs by Western blot analysis; type: functional, cell-based; details: dose 0-24 nmol/L
# MGC-803 [13] = experiment: Induction of apoptosis in human MGC-803 cells assessed as total apoptotic cells at 24 nmol/L incubated for 48 hrs by Annexin-FITC/PI staining based flow cytometry analysis (reference value: 10.9%); type: functional
# SMMC-7721 = experiment: Antiproliferative activity against human SMMC-7721 cells assessed as inhibition of cell growth incubated for 48 hrs by MTT assay; type: functional, cell-based; details: SMMC-7721, 48 h
# [14] = target: T1, Tubulin beta (Homo sapiens); experiment: Binding affinity to colchicine binding site of beta-tubulin in human SGC-7901 cells assessed as inhibition of beta-tubulin alkylation by measuring disappearance of beta-tubulin-EBI adduct band pretreated for 2 hrs followed by EBI addition and measured after 2 hrs by Western blot analysis; type: cell-based; details: dose 0-10 µM, time 4.0 hrs
# SGC-7901 [15] = experiment: Inhibition of cell migration in human SGC-7901 cells assessed as reduction in number of cells crossing membrane at 4 nmol/L measured after 48 hrs by transwell assay; type: functional, cell-based
# [16] = Toxicity in BALB/c nude mouse xenografted with human MGC-803 cells assessed as reduction in body weight at 25 mg/kg/day, ip administered every day for 21 days; type: organism-based; details: in vivo, 504 h, time 21 day
# MGC-803 [17] = experiment: Induction of cell cycle arrest in human MGC-803 cells assessed as downregulation of CDC2 protein expression incubated for 48 hrs by Western blot analysis; type: functional, cell-based; details: dose 0-24 nmol/L
# SGC-7901 [18] = experiment: Induction of apoptosis in human SGC-7901 cells assessed as total apoptotic cells at 30 nmol/L incubated for 48 hrs by Annexin-FITC/PI staining based flow cytometry analysis (reference value: 5.9%); type: functional
# MCF7 = experiment: Antiproliferative activity against human MCF7 cells assessed as inhibition of cell growth incubated for 48 hrs by MTT assay; type: functional, cell-based; details: MCF7, 48 h
# MGC-803 [19] = experiment: Induction of apoptosis in human MGC-803 cells assessed as increase in total apoptotic cells incubated for 48 hrs by Annexin-FITC/PI staining based flow cytometry analysis; type: functional, cell-based; details: dose 0-24 nmol/L
# MGC-803 [20] = experiment: Antitumor activity against human MGC-803 cells xenografted in BALB/c nude mouse assessed as reduction in tumor volume at 25 mg/kg/day, ip administered every day for 21 days; type: functional, organism-based; details: time 21.0 day
# [21] = target: T2, Lysine-specific histone demethylase 1A; experiment: Inhibition of LSD1 in human SGC-7901 cells assessed as increase in H3K4me2 expression level at 0 to 30 nmol/L incubated for 48 hrs by Western blot analysis; type: cell-based; details: dose 0-30 nmol/L
# SGC-7901 [22] = experiment: Induction of apoptosis in human SGC-7901 cells assessed as downregulation of Mcl-1 protein expression incubated for 48 hrs by Western blot analysis; type: functional, cell-based; details: dose 0-30 nmol/L
# MGC-803 [23] = experiment: Induction of apoptosis in human MGC-803 cells assessed as activation of caspase-7 at 0 to 24 nmol/L incubated for 48 hrs by Western blot analysis; type: functional, cell-based; details: dose 0-24 nmol/L
# SGC-7901 [24] = experiment: Inhibition of cell migration in human SGC-7901 cells assessed as reduction in rate of wound healing at 4 nmol/L measured after 0 to 48 hrs; type: functional, cell-based; details: time 0-48 hrs
# SGC-7901 [25] = experiment: Induction of morphological changes in human SGC-7901 cells assessed as increase in proportion of dead cells at 0 to 30 nmol/L incubated for 48 hrs by calcein-AM/PI staining based analysis; type: functional, cell-based; details: dose 0-30 nmol/L
# MGC-803 [26] = experiment: Inhibition of cell migration in human MGC-803 cells assessed as reduction in number of cells crossing membrane at 4 nmol/L measured after 48 hrs by transwell assay; type: functional, cell-based
# GES1 = experiment: Cytotoxicity against human GES1 cells assessed as reduction in cell viability at 0 to 30 nM incubated for 48 hrs by MTT assay; type: toxicity, cell-based; details: ges1, 48 h, 0.03 µM, dose 0-30 nM
# MGC-803 [27] = experiment: Induction of apoptosis in human MGC-803 cells assessed as activation of caspase-3 at 0 to 24 nmol/L incubated for 48 hrs by Western blot analysis; type: functional, cell-based; details: dose 0-24 nmol/L
# SGC-7901 [28] = experiment: Induction of morphological changes in human SGC-7901 cells assessed as varied size of nucleus at 0 to 30 nmol/L incubated for 48 hrs by DAPI staining based analysis; type: functional, cell-based; details: dose 0-30 nmol/L
# [29] = Hepatotoxicity in BALB/c nude mouse xenografted with human MGC-803 cells assessed as effect on AST level at 25 mg/kg/day, ip administered every day for 21 days; type: toxicity, organism-based; details: in vivo, 504 h, time 21 day
# SGC-7901 [30] = experiment: Induction of morphological changes in human SGC-7901 cells assessed as reduction in cell density at 0 to 30 nmol/L incubated for 48 hrs by bright field microscopic analysis; type: functional, cell-based; details: dose 0-30 nmol/L
compound,measurement,setting,value
COc1ccc(CN(C(=O)CSC(=S)N2CCN(c3ccc(N)cc3)CC2)c2cc(OC)c(OC)c(OC)c2)cc1O,Activity,SGC-7901 [1],Active
same,Activity,[2],Dose-Dependent Effect
same,Activity,MGC-803 [3],Active
same,Activity,MGC-803 [4],Active
same,Activity,MGC-803 [5],Dose-Dependent Effect
same,Activity,MGC-803 [6],Dose-Dependent Effect
same,IC50,NCI-H520,22.5 nM
same,Activity,MGC-803 [7],Active
same,Activity,SGC-7901 [8],Active
same,inhibition,[9],Active
same,inhibition,[10],Active
same,Activity,SGC-7901 [11],Active
same,Activity,MGC-803 [12],Active
same,Activity,MGC-803 [13],85.5%
same,IC50,SMMC-7721,27 nM
same,Activity,[14],Dose-Dependent Effect
same,inhibition,SGC-7901 [15],Active
same,Activity,[16],Non-Toxic
same,Activity,MGC-803 [17],Dose-Dependent Effect
same,Activity,SGC-7901 [18],75.4%
same,IC50,MCF7,34.4 nM
same,Activity,MGC-803 [19],Dose-Dependent Effect
same,Activity,MGC-803 [20],Active
same,inhibition,[21],Active
same,Activity,SGC-7901 [22],Dose-Dependent Effect
same,Activity,MGC-803 [23],Active
same,inhibition,SGC-7901 [24],Active
same,Activity,SGC-7901 [25],Active
same,inhibition,MGC-803 [26],Active
same,Activity,GES1,Non-Toxic
same,Activity,MGC-803 [27],Active
same,Activity,SGC-7901 [28],Active
same,Activity,[29],Non-Toxic
same,Activity,SGC-7901 [30],Active

# Reference: ChEMBL document CHEMBL5346930, “Discovery of novel N-benzylarylamide-dithiocarbamate based derivatives as dual inhibitors of tubulin polymerization and LSD1 that inhibit gastric cancers” (Eur J Med Chem, 2023)
